# “Also recorded” adds a separate entry of the source.
# Key:
# Smad2 = experiment: phospho-Smad2 immunoblotting; assay type: cell-based, human; conditions: 100 pM TGFβ; 100 μg/mL rhPRG4; 12 h
# Method: Cells were washed with PBS to remove all growth media. Appropriate volume of TNTE lysis buffer (50 mM Tris, 150 mM NaCl, 1 mM EDTA, 0.5% [v/v] Triton-X-100) containing protease and phosphatase inhibitors, was added to the cell monolayer and incubated at 4° C. under vigorous shaking for 20 minutes. Lysates were then collected in microcentrifuge tubes and centrifuged at 13,000 g for 10 minutes at 4° C. 5 μL of the lysate were subjected to protein concentration determination using Bradford-based protein assays (Bio-Rad Laboratories, Canada). Lysates were boiled for 3 minutes at 95° C. in dithiothreitol (DTT)-containing Laemmli sample buffer. For immunoprecipitation analyses, lysates were incubated with appropriate antibodies at 4° C. with gentle rocking for 3 h after which immunocomplexes were incubated with Protein G-conjugated agarose beads (UBPBio, USA) at 4° C. with gentle rocking for 3 h. Finally, the beads were washed with TNTE wash buffer (0.1% [v/v] Triton-X-100) and boiled for 5 minutes at 95° C. in dithiothreitol (DTT) containing Laemmli sample buffer. Immunoprecipitates and input lysates were then resolved by sodium dodecyl sulfate-polyacrylamide electrophoresis (SDS-PAGE) and transferred onto a nitrocellulose membrane (Bio-Rad Laboratories, Canada). […] Densitometric analyses were performed using Quantity One software (Bio-Rad Laboratories, Canada).
# PLC/PRF/5 = experiment: 72-hour proliferation assay, PLC/PRF/5; assay type: cell-based, human; conditions: drug 2.5 μM
# Method: Proliferation assay: In 100 μl complete medium, 3,000 cells were seeded in wells of a 96-well plate and left overnight to allow complete attachment. The next day (at time t=0 hours), the medium was removed and replaced with 100 μl of fresh medium in the presence/absence of Sorafenib (2.5 μM), Regorafenib (2.5 μM), rhPRG4 (12.5 to 100 μg/ml). Dimethyl sulfoxide (DMSO) and PBS+0.01% Tween-20 were used as vehicles of Sorafenib/Regorafenib, and rhPRG4, respectively. Cells in triplicate wells for each cell line were fixed at t=0 hours with 4% paraformaldehyde (PFA, pH 7.6, 10 min incubation), then stained with crystal violet (CV) and thoroughly washed to remove the excess staining. After 72 hours, the cells were fixed by adding 100 μl of 4% PFA directly to the medium (2% final PFA concentration, 20 min incubation), and processed for CV staining as previously described. Then, 100 or 200 μl of 1% sodium dodecyl-sulphate were added to the wells and the plates were left under shaking until complete CV release from stained cells. Optical density was at 595 nm wavelength measured using a plate reader.
substance,measurement,setting,value
rhPRG4: full-length recombinant human PRG4 (lubricin) glycoprotein produced by CHO-M cells; residues 25-1404 of SEQ ID NO:1,TGFβ-induced phosphorylation of Smad2,Smad2,did not appreciably alter TGFβ-induced phosphorylation of Smad2; also recorded: did not reduce TGFβ-induced Smad2 phosphorylation
same,rhPRG4-drug synergistic effect,PLC/PRF/5,did not respond at all

# Reference: patent US20220332839A1, “USE OF PRG4 TO TREAT CANCER” (Lubris LLC, priority 2019, published 2022)
